Assay results published in patent US20080226718A1, “Indole and Azaindole Derivatives For the Treatment of Inflammatory and Autoimmune Diseases” (Brane Discovery S.r.l, priority 2005, published 2008).

How the values were obtained:
[1] = system: PMNs; assay: Chemokine-induced rapid adhesion of PMNs to fibrinogen (fMLP); type: cell-based; conditions: Homo sapiens, 2 min, fMLP 100 nM; for inhibition at 10 µM: [cpd] 10 μM; for inhibition at 25 µM: [cpd] 25 μM; for inhibition at 50 µM: [cpd] 50 μM
Protocol: (§1) Adhesion was performed on purified integrin ligands and was evaluated as reported in Constantin G. et al., Immunity, 16, 759-769, 2000. Briefly, primary naïve lymphocytes, polymorphonuclear neutrophils (PMNs) or monocytes were isolated form healthy donors. In other experiments, murine autoreactive T cells were obtained from SJL mice immunized with PLP139-151 as described (Piccio L. et al., J. Immunol, 168, 1940-1949, 2002). Cells were resuspended at 4×10^6/ml in PBS, CaCl2, MgCl2 1 mM, 10% FCS, pH 7.2. Adhesion assays were performed on eighteen well glass slides coated overnight at 4° C. with ligands for CR3 (fibrinogen) or LFA-1 (ICAM-1). 20 μl of cell suspension were added to the wells and stimulated at 37° C. with 5 μl of agonists prior to washing, fixation and computer-assisted enumeration of bound cells.
(§2) Integrin activation was measured as induction of rapid adhesion triggered by the classical chemoattractant N-formyl-L-methionyl-L-leucyl-phenylalanine (fMLP) (100 nM) or by the CC chemokine MIP3β (CCL19, 1 μM). PMNs and monocytes were triggered to adhere to fibrinogen (CR3 ligand); naive human lymphocytes or murine encephalitogenic T cells were triggered to adhere to ICAM-1 (LFA-1 ligand). Triggered adhesion was evaluated after 2 min of stimulation under static conditions. The cells were pretreated at 37° C. for 30-60 min with the indicated concentrations of the test compound. Results are expressed as percentage of inhibition over control (=100%) and are the mean of three experiments in the case of human leukocytes. Results are expressed as mean counts and are the mean counts ±S.D of three experiments and are the mean of three experiments in the case of murine encephalitogenic lymphocytes.
(§3) Integrin activation was measured as induction of rapid adhesion triggered by the “classical” chemoattractant fMLP (100 nM) or by the CC chemokine MIP3β (CCL19, 1 μM). PMNs were triggered to adhere to fibrinogen (CR3 ligand); lymphocytes were triggered to adhere to ICAM-1 (LFA-1 ligand).

[2] = system: PMNs; assay: Chemotaxis assay, PMNs (fMLP); type: cell-based; conditions: Homo sapiens, fMLP 10 nM, 2 h; for inhibition at 10 µM: [cpd] 10 μM; for inhibition at 25 µM: [cpd] 25 μM; for inhibition at 50 µM: [cpd] 50 μM
Protocol: (§4) PMNs and monocytes migration was assessed using 1 or 3-μm pore size transwells (Bio-Coat Becton-Dickinson), while lymphocytes by using 5-elm pore size transwells.
(§5) Cells were in RPMI1640, containing 10% heat-inactivated Fetal Calf Serum (FCS) and 20 mM HEPES, pH 7.3, at 2×10^6/ml. 100 μl of cell suspension were added to the top well, and 600 μl of medium, containing chemoattractants and test compound, were added to the bottom well. Migration was evaluated after 2 h for PMNs and monocytes and after 4 h for lymphocytes. fMLP 10 nM (PMNs and monocytes) and MIP-3β 100 nM (lymphocytes) were utilized as chemoattractants. After fixation with 1.5% glutaraldehyde, migrated cells were counted by fluorescence-activated celli sorting using polystyrene beads (Polyscience) as an internal standard (Campbell J. J. et al. J. Cell. Biol. 134, 255-266, 1996; Laudanna C. et al. J. Biol. Chem. 273,46, 30306-30315, 1998).
(§6) Results are expressed as percentage of inhibition over control (=100%), and are the mean of three experiments.

[3] = system: encephalitogenic lymphocytes; assay: Spontaneous adhesion of encephalitogenic T cells on purified ICAM-1; type: cell-based, SJL mice; conditions: Mus musculus, Lymphocyte, 1 h; for inhibition at 5 µM: [cpd] 5 μM, read-out: Inhibition of Spontaneous Adhesion in encephalitogenic lymphocytes (% of control/non-treated cells) ICAM-1; for inhibition at 10 µM: [cpd] 10 μM; for inhibition at 10 µM / inhibition at 50 µM: read-out: Inhibition of Spontaneous Adhesion in encephalitogenic lymphocytes (% of control/non-treated cells) ICAM-1 (converted); for inhibition at 50 µM: [cpd] 50 μM
Protocol: Spontaneous adhesion of encephalitogenic lymphocytes was measured in adhesion assays on purified ICAM-1 and VCAM-1 as previously described (Constantin G. et al., J. Immunol. 162, 1144-1149, 1999). Autoreactive T cells were obtained from SJL mice immunized with PLP139-151 as described (Piccio L. et al., J. Immunol. 168, 1940-1949, 2002). Lymphocytes were treated with test compound at concentrations between 5-100 μM for 1 h, while control/untreated cells were treated with vehicle (DMSO). Results are expressed as percentage of inhibition over control (=100%) ±S.D and are the mean of three-four experiments.
ICAM-1 and VCAM-1 are adhesion molecules from the family of immunoglobulins and control the migration of lymphocytes through the endothelium during inflammatory responses. Encephalitogenic T cells are activated lymphocytes displaying spontaneous adhesion on ICAM-1 and VCAM-1 and have increased migration capacities in inflammation sites. Spontaneous adhesion of encephalitogenic lymphocytes was measured in adhesion assays on purified ICAM-1 and VCAM-1 as described in the method.

[4] = system: monocytes; assay: Chemotaxis assay, monocytes (fMLP); type: cell-based; conditions: Homo sapiens, Monocyte, fMLP 10 nM, 2 h; for inhibition at 10 µM: [cpd] 10 μM; for inhibition at 25 µM: [cpd] 25 μM; for inhibition at 50 µM: [cpd] 50 μM
Protocol: as §4, §5, §6

[5] = system: monocytes; assay: Chemokine-induced rapid adhesion of monocytes to fibrinogen (fMLP); type: cell-based; conditions: Homo sapiens, Monocyte, fMLP 100 nM; for inhibition at 10 µM: [cpd] 10 μM; for inhibition at 25 µM: [cpd] 25 μM; for inhibition at 50 µM: [cpd] 50 μM
Protocol: as §1, §2

[6] = system: lymphocytes; assay: Chemotaxis assay, lymphocytes (MIP-3β); type: cell-based; conditions: Homo sapiens, Lymphocyte, MIP-3β 100 nM, 4 h; for inhibition at 10 µM: [cpd] 10 μM, read-out: Inhibition of Chemotaxis (%) Lymphocytes (MIP3-β); for inhibition at 25 µM: [cpd] 25 μM; for inhibition at 25 µM / inhibition at 50 µM: read-out: Inhibition of Chemotaxis (%) Lymphocytes (MIP3-β) (converted); for inhibition at 50 µM: [cpd] 50 μM
Protocol: as §4, §5, §6

[7] = system: lymphocytes; assay: Chemokine-induced rapid adhesion of lymphocytes to ICAM-1 (MIP3β); type: cell-based; conditions: Homo sapiens, Lymphocyte, MIP3β 1 μM; for inhibition at 10 µM: [cpd] 10 μM, read-out: Inhibition of Adhesion (%) Lymphocytes (MIP3-β); for inhibition at 25 µM: [cpd] 25 μM; for inhibition at 25 µM / inhibition at 50 µM: read-out: Inhibition of Adhesion (%) Lymphocytes (MIP3-β) (converted); for inhibition at 50 µM: [cpd] 50 μM
Protocol: as §1, §2, §3

[8] = system: encephalitogenic lymphocytes; assay: Chemokine-induced adhesion of murine encephalitogenic T cells to ICAM-1; type: cell-based, SJL mice; conditions: ICAM-1; for Chemokine-induced Adhesion in encephalitogenic lymphocytes, Mean counts ± S.D., in presence of MIP3-β stimulation: 1 μM CCL19 (MIP-3beta)
Protocol: as §1, §2
Chemokines trigger rapid arrest of lymphocytes in blood vessels through pertussis toxin-sensitive G protein coupled receptors. Rapid adhesion to purified ICAM-1 was measured in in vitro adhesion assays using control/untreated cells and lymphocytes treated with concentration between 5-50 μM for 1 h. Autoreactive lymphocytes were then stimulated with 1 μM CCL19 (MIP-3beta) for 3 min. […] These compounds were already efficient in blocking adhesion using a concentration of 5 μM for the cell treatment.

Row | SMILES | inhibition at 10 µM [1] [%] | inhibition at 25 µM [1] [%] | inhibition at 50 µM [1] [%] | inhibition at 10 µM [2] [%] | inhibition at 25 µM [2] [%] | inhibition at 50 µM [2] [%] | inhibition at 5 µM [3] [%] | inhibition at 10 µM [3] [%] | inhibition at 50 µM [3] [%] | inhibition at 10 µM [4] [%] | inhibition at 25 µM [4] [%] | inhibition at 50 µM [4] [%] | inhibition at 10 µM [5] [%] | inhibition at 25 µM [5] [%] | inhibition at 50 µM [5] [%] | inhibition at 10 µM [6] [%] | inhibition at 25 µM [6] [%] | inhibition at 50 µM [6] [%] | inhibition at 10 µM [7] [%] | inhibition at 25 µM [7] [%] | further results
1 | COc1ccc(-c2c3n(c4cc(OC)c(OC)cc24)CC(=O)NC3)cc1 [Example 66] | 6.1 | 11.5 | 17.2 | 50 | 77.8 | 92.6 | 15 | 33.7 | 92.9 | 43.9 | 74.4 | 92.7 | 11.3 | 28.7 | 40.4 | 57.5 | 89.6 | 87.7 | 61.3 | 68.1 | inhibition at 50 µM [7]: 79%
2 | COc1ccc(-c2c(C#N)n(CCN(C)C)c3cc(OC)c(OC)cc23)cc1 [Example 18] | 2.2 | 10.4 | 26.7 | 52.3 | 77.6 | 91.2 | 28.7 | 36.8 | 96.9 | 17.3 | 62.1 | 84.5 | 7.8 | 14.7 | 31.2 | 51 | 86.7 | 92.3 | 66.3 | 91.4 | inhibition at 50 µM [7]: 95.1%
3 | COc1ccc(-c2c(C(N)=O)[nH]c3cc(OC)c(OC)cc23)cc1 [Example 14] |  |  |  |  |  |  |  |  |  |  |  |  |  |  |  |  |  |  |  |  | Chemokine-induced Adhesion in encephalitogenic lymphocytes, Mean counts ± S.D., in presence of MIP3-β stimulation ([8]; [cpd] 1 μM): 120.3 ± 9.8; Adhesion in encephalitogenic lymphocytes, Mean counts ± S.D., in absence of MIP3-β stimulation ([8]; [cpd] 1 μM): 67.6 ± 2.0; Chemokine-induced Adhesion in encephalitogenic lymphocytes, Mean counts ± S.D., in presence of MIP3-β stimulation ([8]; [cpd] 5 μM): 101.2 ± 6.1; Adhesion in encephalitogenic lymphocytes, Mean counts ± S.D., in absence of MIP3-β stimulation ([8]; [cpd] 5 μM): 41.8 ± 4.2; Chemokine-induced Adhesion in encephalitogenic lymphocytes, Mean counts ± S.D., in presence of MIP3-β stimulation ([8]; [cpd] 50 μM): 56.8 ± 2.2; Adhesion in encephalitogenic lymphocytes, Mean counts ± S.D., in absence of MIP3-β stimulation ([8]; [cpd] 50 μM): 20.9 ± 11.7
4 | CNC(=O)c1[nH]c2cc(OC)c(OC)cc2c1-c1ccccc1 [Example 48] | 18 | 48.9 | 53.7 | 82.4 | 87.8 | 96.4 | 37.5 | 65.6 | 95.6 | 71.7 | 90.4 | 96.5 | 7.5 | 22.5 | 31.7 | 48.9 | 77.3 | 94.9 | 53.7 | 77.3 | inhibition at 50 µM [7]: 91.5%
5 | COc1ccc(-c2c3n(c4cc(OC)c(OC)cc24)CCOC3)cc1 [Example 76] |  |  |  |  |  |  |  |  |  |  |  |  |  |  |  |  |  |  |  |  | inhibition at 100 µM ([1]; [cpd] 100 μM): 66%; Chemokine-induced Adhesion in encephalitogenic lymphocytes, Mean counts ± S.D., in presence of MIP3-β stimulation ([8]; [cpd] 1 μM): 102.9 ± 2.9; Adhesion in encephalitogenic lymphocytes, Mean counts ± S.D., in absence of MIP3-β stimulation ([8]; [cpd] 1 μM): 36.9 ± 4.0; Chemokine-induced Adhesion in encephalitogenic lymphocytes, Mean counts ± S.D., in presence of MIP3-β stimulation ([8]; [cpd] 5 μM): 87.7 ± 12.0; Adhesion in encephalitogenic lymphocytes, Mean counts ± S.D., in absence of MIP3-β stimulation ([8]; [cpd] 5 μM): 28.3 ± 8.9; Chemokine-induced Adhesion in encephalitogenic lymphocytes, Mean counts ± S.D., in presence of MIP3-β stimulation ([8]; [cpd] 50 μM): 66.6 ± 1.8; Adhesion in encephalitogenic lymphocytes, Mean counts ± S.D., in absence of MIP3-β stimulation ([8]; [cpd] 50 μM): 23.0 ± 1.9
6 | COc1ccc(-c2c(-c3nnc(C)o3)[nH]c3cc(OC)c(OC)cc23)cc1 [Example 77] | 17.4 | 24.7 | 30.5 | 51.3 | 49.4 | 59.5 | 25.9 | 34.8 | 95.9 | 40.6 | 48.9 | 59 | 3.5 | 33.4 | 50.8 | 13.6 | 25.4 | 33.8 | 15.9 | 20.7 | inhibition at 50 µM [7]: 30.5%
7 | COc1cc2[nH]c(C(=O)N(C)C)c(-c3ccccc3)c2cc1OC [Example 46] | 16.7 | 28.7 | 38.4 | 65.3 | 74.5 | 93.1 | 15.8 | 25.9 | 96.3 | 48.2 | 63.8 | 89.9 | 12.6 | 32.2 | 37.6 | 19.9 | 45 | 85 | 34.1 | 58.8 | inhibition at 50 µM [7]: 67.1%
